Laboratory results: US7767842B2, “Class of γδ T cells activators and use thereof” (Innate Pharma SA, priority 2002, dated 2010)
Where two headings read alike, the source gives them in different places.

Assays:
[1] = system: primary polyclonal human Vγ9Vδ2 T cells; experiment: Cytokine release assay: TNFα release from γδ T cells; format: cell-based
Protocol: Cells (primary polyclonal human Vγ9Vδ2 T cells which have been expanded in vitro and stored frozen at day 12-15 of expansion) are thawed and rinsed twice and centrifuged. Upon elimination of supernatant and resuspension of cells, the cells are incubated for 24 h at 37° C. in the presence of IL2 100 IU/ml (final concentration). The cells are washed and centrifuged, following which the supernatant is eliminated and the cells are resuspended and adjusted to the adequate final concentration. The cells are added to the wells of a 96-well plate.
To one row of wells is added a standard dilution series of […] (BrHPP). Compounds to be tested, in this case (E)-4-hydroxy-3-methyl-2-butenyl pyrophosphate (HDMAPP) and the N-HDMAPP compound of the invention are added to experimental wells, after several dilutions.
Full plates are incubated 24 hours at 37° C. for stimulation of the γδ cells with the test compound and reference compounds, in this case N-HDMAPP, BrHPP and HDMAPP, as further described below. After this time, 100 μl of culture supernatant is taken for TNFα dosage. Measurement of the released TNFα dosage is performed as described by the manufacturer's instruction in the TNFα enzyme immunoassay kit (ref. 11121, Immunotech—Beckman Coulter). OD at 405 nm is read, the OD being proportional to the concentration of released TNFα in the culture supernatant. The data are processed with the Excel software to compare concentration of test compound versus concentration of TNFα and for the calculation of the EC50 for each test compound.
The bioactivity of the compound N-HDMAPP was assessed using a TNFα release assay as described above. Compounds BrHPP and HDMAPP were included for purpose of comparison. […] As will be appreciated, any other suitable assays such as cell amplification may be used in assessing compounds.

γδ T cells = details: at best; Wilhelm et al., 2003; cited from earlier work
[2] = 24 hours stimulation at 37° C., TNFα enzyme immunoassay, relative screening test, read-out: in vitro EC50, TNFα release

With `CC(O)(CBr)CCOP(=O)(O)OP(=O)(O)O` (stereo not drawn) [BrHPP, 3-(bromomethyl)-3-butanol-1-yl-diphosphate] the EC50 ([1]; Homo sapiens, T-cell, prior assays, calibrated cells, read-out: EC50 in prior assays with calibrated cells using a BrHPP-standard composition) was ~15 nM.
In the case of `NCCC(O)(P(=O)(O)O)P(=O)(O)O` [pamidronate], the “increase in γδ T cell count” value (γδ T cells) is listed as ≤ 2 fold.
With “(E)-4-hydroxy-3-methylbut-2-enyl pyrophosphoramidate [N-HDMAPP]” the EC50 [1, 2] was 0.63 nM, the “maximum TNFα release” value ([1]; maximum level, FIG. 1) was “over 1800 pg/ml” and the “increased potency over the most potent compounds tested so far” value ([1]; ratio of EC50, TNFα release) was 3-4.
`C/C(=C\COP(=O)(O)OP(=O)(O)O)CO` [HDMAPP, (E)-4-hydroxy-3-methyl-2-butenyl pyrophosphate] showed an EC50 [1, 2] of 2.1 nM.
